Measurements from paper PMC12368482, “Antiprotozoal Activity of Highly Substituted Pyrazole and Pyrimidine Derivatives” (Chemmedchem, 2025).
Where two headings read alike, the source gives them in different places.

Tests used:
Format in all cases: cell-based
[1] = MTT cytotoxicity assay on fibroblasts; conditions: human, GM-6114 embryonic human fibroblasts, compounds tested at 10 μM for 48 h, percentage of control, read-out: Cell viability GM‐6114
Protocol: MTT assays: MTT assays were performed using GM‐6114 (embryonic human fibroblast, ATCC, Manassas, VA). The cells were grown in DMEM with 10% FBS, 2 mM glutamine, and 1% penstrep and incubated at 37 °C in 5% CO2 in a humidified environment. All reagents were purchased from EuroClone (Milan, Italy). Briefly, the cell line was plated in 96 well plates at an adequate number to reach 80%–90% of confluence at the end of the assay. 16 h after cell plating, compounds were dissolved in DMSO to give a 10 mM stock solution, diluted in growth medium, and added at a final working concentration of 10 μM. After 48 h of incubation, 30 μL of 3‐(4,5‐dimethyl‐2‐thiazolyl)‐2,5‐diphenyl‐2H‐tetrazolium bromide (MTT) at a concentration of 2 mg mL^−1 in PBS were added in each well. Then, after further 4 h of incubation, the supernatant was removed, and 100 μL/well of DMSO were used to dissolve the formazan precipitate that could be found in vital cells. After 20 min, the results were read at 570 nm by means of a plate reader. The results were expressed as percentage of the control samples in which the cells were incubated with the same amount of DMSO but without compounds. The assays were repeated three times. In each set, every single compound was tested six times. Variation among duplicates was less than 10%.

P. falciparum W2 = assay: Antiplasmodial susceptibility assay (pLDH), CQ-resistant W2 strain; conditions: Plasmodium falciparum, read-out: IC50 P. falciparum W2
Protocol: (§1) Continuous in vitro Plasmodium falciparum cultures were carried out according to Trager and Jensen with slight modifications.^[ [38] ^] The CQ‐susceptible strain D10 and the CQ‐resistant strain W2 were maintained at 5% hematocrit (human type A‐positive red blood cells) in RPMI 1640 (EuroClone, Celbio) medium with the addition of 1% AlbuMax (Invitrogen, Milan, Italy), 0.01% hypoxanthine, 20 mM HEPES (at pH 7.4), and 2 mM glutamine. All the cultures were maintained at 37 °C in a low‐oxygen atmosphere consisting of 1% O2, 5% CO2, and 94% N2. Compounds were dissolved in DMSO to a stock concentration of 10 mg/ml and then diluted with complete medium to achieve the desired concentrations (final DMSO concentration <1%, which is nontoxic to the parasite). Derivatives were placed in 96‐well flat‐bottomed microplates in duplicate, and seven 1:2 serial dilutions were made directly in the plate in a volume of 100 μL. Asynchronous cultures with parasitemia of 1%–1.5% (assessed through Giemsa stained blood smears) and 1% final hematocrit were aliquoted into the plates and incubated for 72 h at 37 °C in a final volume of 200 μL/well. Uninfected erythrocytes at 2% hematocrit were used as blank. The antimalarial CQ was tested against the parasite strains as a positive control of inhibition. Parasite growth was determined spectrophotometrically (OD650) by measuring the activity of the parasite lactate dehydrogenase (pLDH), according to a modified version of the method of Makler in control and drug‐treated cultures.^[ [39] ^] The antimalarial activity was expressed as 50% inhibitory concentrations (IC50). The IC50 values were extrapolated from nonlinear regression analysis of the concentration–response curve, using the software Gen5 1.10 provided with the Synergy 4 (BioTek) reader. Each IC50 value was the mean of three independent experiments run in duplicates.

P. falciparum D10 = assay: Antiplasmodial susceptibility assay (pLDH), CQ-sensitive D10 strain; conditions: Plasmodium falciparum, read-out: IC50 P. falciparum D10
Protocol: as §1

[2] = test system: L. infantum promastigotes; assay: Antileishmanial evaluation (MTT), promastigotes; conditions: Leishmania infantum, 72 h, NA = not active
Protocol: (§2) The promastigote stage of L. infantum strain MHOM/TN/80/IPT1 (kindly provided by Dr M. Gramiccia, ISS, Roma) and L. tropica strain (MHOM/IT/2012/ISS3130) were cultured in RPMI 1640 medium (EuroClone) supplemented with 10% heat‐inactivated fetal calf serum (EuroClone), 20 mM Hepes, and 2 mM L‐glutamine at 24 °C. To determine the 50% inhibitory concentration (IC50), the MTT method was used.^[ [40], [41] ^] Compounds were dissolved in DMSO and then diluted with medium to achieve the required concentrations. Drugs were placed in 96 wells round‐bottom microplates and seven serial dilutions made. Amphotericin B was used as reference antiLeishmania drug. Parasites were diluted in complete medium to 5 × 10^6 parasites mL^−1 and 100 μL of the suspension was added to each well. The plates were incubated at 24 °C for 72 h, after the incubation 20 μL of MTT solution (5 mg mL^−1) was added to each well and incubated for additional 3 h. The plates were then centrifuged at 1000 × g for 8 min at room temperature and the supernatants were discarded. The resulting pellets were dissolved in 100 μL of lysing buffer consisting of 20% w/v of a solution of SDS (Sigma), 40% of DMF (Merck) in H2O. The absorbance was measured spectrophotometrically at a test wavelength of 550 nm and a reference wavelength of 650 nm. The results were expressed as IC50 which was the concentration of compound necessary to inhibit parasite growth by 50%; each IC50 value was the mean of separate experiments performed in duplicate.

L. tropica promastigotes = assay: Antileishmanial evaluation (MTT), promastigotes; conditions: Leishmania tropica, 72 h, NA = not active
Protocol: as §2

[3] = CQ-resistant strain W2, 72 h, pLDH readout, mean of three independent experiments in duplicate, NA = not active
[4] = CQ-sensitive strain D10, 72 h, pLDH readout, mean of three independent experiments in duplicate, NA = not active

Structure (SMILES)	IC50 (P. falciparum W2; [3]) [µM]	IC50 (P. falciparum D10; [4]) [µM]	IC50 [2] [µM]	IC50 (L. tropica promastigotes) [µM]	viability at 48 h, 10 μM [1] [%]	IC50 (P. falciparum W2; W2, 72 h) [µM]	IC50 (P. falciparum D10; D10, 72 h) [µM]
COc1ccc(CCNc2[nH]nc(N)c2S(=O)(=O)c2ccccc2)cc1OC [15a, N ^ 5 ‐(3,4‐dimethoxyphenethyl)‐4‐(phenylsulfonyl)‐1H‐pyrazole‐3,5‐diamine]					70		
N#Cc1c(-c2ccc(Br)cc2)n[nH]c1Nc1ccccc1 [VIc, reference compound]	19.9	19.8	19.3	23.2	67		
CCN(CC)CCCC(C)Nc1ccnc2cc(Cl)ccc12 (stereo not shown) [CQ, chloroquine, reference compound]						0.45	0.04
CC(C)(C)c1n[nH]c(N2CCOCC2)c1C#N [13b, 3‐(tert‐butyl)‐5‐morpholino‐1H‐pyrazole‐4‐carbonitrile]					91		
CCCCN(CCCC)CCNc1[nH]nc(-c2ccccc2)c1C#N [14d, 5‐((2‐(dibutylamino)ethyl)amino)‐3‐phenyl‐1H‐pyrazole‐4‐carbonitrile]	9	9.52	7.92	11.6	71		
N#Cc1c(-c2ccccc2)n[nH]c1N1CCC(c2ccccc2)CC1 [14c, 3‐phenyl‐5‐(4‐phenylpiperidin‐1‐yl)‐1H‐pyrazole‐4‐carbonitrile]	23.4	31	22.4	21.3	76		
CCCCN(CCCC)CCCNc1[nH]nc(-c2ccccc2)c1C#N [14e, 5‐((3‐(dibutylamino)propyl)amino)‐3‐phenyl‐1H‐pyrazole‐4‐carbonitrile]	4.34	9.79	6.17	8.32	65		
N#Cc1c(O)nc(N)nc1N1CCOCC1 [16b, 2‐amino‐4‐hydroxy‐6‐morpholinopyrimidine‐5‐carbonitrile]					65		
N#Cc1c(-c2ccccc2)nc(N)nc1N1CCOCC1 [17b, 2‐amino‐4‐morpholino‐6‐phenylpyrimidine‐5‐carbonitrile]					66		
N#Cc1c(-c2ccccc2)n[nH]c1N1CCOCC1 [14b, 5‐morpholino‐3‐phenyl‐1H‐pyrazole‐4‐carbonitrile]			75.9		84		
Nc1n[nH]c(N2CCOCC2)c1S(=O)(=O)c1ccccc1 [15b, 5‐morpholino‐4‐(phenylsulfonyl)‐1H‐pyrazol‐3‐amine]	50.4	49.6			87		
N#Cc1c(-c2ccc(Cl)cc2)n[nH]c1Nc1ccccc1 [VIb, reference compound]	32.7	34.3	19.1	23.2	70		
COc1ccc(CCNc2nc(N)nc(-c3ccccc3)c2C#N)cc1OC [17a, 2‐amino‐4‐((3,4‐dimethoxyphenethyl)amino)‐6‐phenylpyrimidine‐5‐carbonitrile]					46		
CCN(CC)CCCC(C)Nc1[nH]nc(-c2ccccc2)c1C#N (stereo not shown) [14f, 5‐((5‐(diethylamino)pentan‐2‐yl)amino)‐3‐phenyl‐1H‐pyrazole‐4‐carbonitrile]	13.4	43.3	11	9.74	58		
N#Cc1c(-c2cccc(Br)c2)n[nH]c1Nc1ccccc1 [VIa, reference compound]	21	27.8	17.7	21.2	78		
C[C@@H]1[C@H](O)[C@@H](C)/C=C/C=C/C=C/C=C/C=C/C=C/C=C/[C@H](O[C@@H]2O[C@H](C)[C@@H](O)[C@H](N)[C@@H]2O)C[C@@H]2O[C@](O)(C[C@@H](O)C[C@@H](O)[C@H](O)CC[C@@H](O)C[C@@H](O)CC(=O)O[C@H]1C)C[C@H](O)[C@H]2C(=O)O [AmB, amphotericin B, reference compound]			0.22	0.29			
CC(C)(C)c1n[nH]c(N2CCC(c3ccccc3)CC2)c1C#N [13c, 3‐(tert‐butyl)‐5‐(4‐phenylpiperidin‐1‐yl)‐1H‐pyrazole‐4‐carbonitrile]	11.1	14.9	30.4	34.6	94		
COc1ccc(CCNc2[nH]nc(C(C)(C)C)c2C#N)cc1OC [13a, 3‐(tert‐butyl)‐5‐((3,4‐dimethoxyphenethyl)amino)‐1H‐pyrazole‐4‐carbonitrile]	25.6	28.6	40.1	52.2	82		
COc1ccc(CCNc2[nH]nc(-c3ccccc3)c2C#N)cc1OC [14a, 5‐((3,4‐dimethoxyphenethyl)amino)‐3‐phenyl‐1H‐pyrazole‐4‐carbonitrile]	36.5	35.1	40.1	55.7	87		
Nc1n[nH]c(N2CCC(c3ccccc3)CC2)c1S(=O)(=O)c1ccccc1 [15c, 5‐(4‐phenylpiperidin‐1‐yl)‐4‐(phenylsulfonyl)‐1H‐pyrazol‐3‐amine]	51.8	38	27.4	44	102		

The next lines start with results.

IC50 (P. falciparum W2; [3]) [µM]	IC50 (P. falciparum D10; [4]) [µM]	IC50 [2] [µM]	IC50 (L. tropica promastigotes) [µM]	Structure (SMILES)	viability at 48 h, 10 μM [1] [%]	IC50 (P. falciparum W2; W2, 72 h) [µM]	IC50 (P. falciparum D10; D10, 72 h) [µM]
45				CCCCN(CCCC)CCCNc1nc(N)nc(O)c1C#N [16e, 2‐amino‐4‐((3‐(dibutylamino)propyl)amino)‐6‐hydroxypyrimidine‐5‐carbonitrile]	66		
4.18	16.7	7.31	9.14	CCCCN(CCCC)CCCNc1nc(N)nc(-c2ccccc2)c1C#N [17e, 2‐amino‐4‐((3‐(dibutylamino)propyl)amino)‐6‐phenylpyrimidine‐5‐carbonitrile]	67		
31.7	9.24			COc1ccc(CCNc2nc(N)nc(O)c2C#N)cc1OC [16a, 2‐amino‐4‐((3,4‐dimethoxyphenethyl)amino)‐6‐hydroxypyrimidine‐5‐carbonitrile]	67		
